Data: US10981926B2 (Janssen Pharmaceutica NV, priority 2016, dated 2021)

What was measured:
[1] = biological target: T1, wild-type Androgen Receptor (AR-wt) (Homo sapiens (Human), UniProt P10275); test: LNCaP-AR-wt ANT reporter assay (antagonist mode); type: cell-based; details: for IC50: read-out: LNCaP-AR-wt ANT pIC50 (converted); for Emax: read-out: LNCaP-AR-wt ANT MAX % Inh
[2] = biological target: T1, wild-type Androgen Receptor (AR-wt); test: LNCaP-AR-wt AG reporter assay (agonist mode); type: cell-based; details: for EC50: read-out: LNCaP-AR-wt AG pEC50 (converted); for Emax: read-out: LNCaP-AR-wt AG MAX % Stim
[3] = biological target: T2, F876L mutant Androgen Receptor (AR-F876L) (Homo sapiens (Human), UniProt P10275, F877L); test: LNCaP-AR-F876L ANT reporter assay (antagonist mode); type: cell-based; details: for IC50: pIC50 = −Log10(IC50 in Molar), read-out: LNCaP-AR-F876L ANT pIC50 (converted); for Emax: read-out: LNCaP-AR-F876L ANT MAX % Inh
[4] = biological target: T2, F876L mutant Androgen Receptor (AR-F876L); test: LNCaP-AR-F876L AG reporter assay (agonist mode); type: cell-based; details: for EC50: read-out: LNCaP-AR-F876L AG pEC50 (converted); for Emax: read-out: LNCaP-AR-F876L AG MAX % Stim
rGABA-gated Cl− channel = test: GABA-Gated Cl Channel Antagonist Radioligand Binding Assay; design: species or system rat; details: 10 μM single point, [35S]-TBPS, cerebral cortex membrane homogenates
Description: GABA-gated C1 Chanel assays were performed at CEREP according to the following method. Membrane homogenates of cerebral cortex (120 μg protein) were incubated for 120 min at 22° C. with 3 nM […] in the absence or presence of the test compound in a buffer containing 50 mM Na2HPO4/KH2PO4 (pH 7.4) and 500 mM NaCl. Nonspecific binding was determined in the presence of 20 μM picrotoxinin. Following incubation, the samples were filtered rapidly under vacuum through glass fiber filters (GF/B, Packard) presoaked with 0.3% PEI and rinsed several times with ice-cold 50 mM Tris-HCl using a 96-sample cell harvester (Unifilter, Packard). The filters were dried then counted for radioactivity in a scintillation counter (Topcount, Packard) using a scintillation cocktail (Microscint 0, Packard). The results are expressed as a percent inhibition of the control radio ligand specific binding. The standard reference compound is picrotoxinin, which was tested in each experiment at several concentrations to obtain a competition curve from which its IC50 was calculated. In this assay, the following representative compounds disclosed herein had recorded activities at a 10 μM single point concentration in the GABA-gated Cl— Channel Binding Assay.

[5] = antagonist mode, pIC50 = −Log10(IC50 in Molar)
[6] = maximum % inhibition of R1881 control response over the tested concentration range
[7] = agonist mode, pEC50 = −Log10(EC50 in Molar)
[8] = maximum % stimulation (agonist response) over the tested concentration range
[9] = antagonist mode, maximum % inhibition of R1881 control response over tested concentration range
[10] = agonist mode, maximum % stimulation over tested concentration range

T1 sequence (P10275 whole entry): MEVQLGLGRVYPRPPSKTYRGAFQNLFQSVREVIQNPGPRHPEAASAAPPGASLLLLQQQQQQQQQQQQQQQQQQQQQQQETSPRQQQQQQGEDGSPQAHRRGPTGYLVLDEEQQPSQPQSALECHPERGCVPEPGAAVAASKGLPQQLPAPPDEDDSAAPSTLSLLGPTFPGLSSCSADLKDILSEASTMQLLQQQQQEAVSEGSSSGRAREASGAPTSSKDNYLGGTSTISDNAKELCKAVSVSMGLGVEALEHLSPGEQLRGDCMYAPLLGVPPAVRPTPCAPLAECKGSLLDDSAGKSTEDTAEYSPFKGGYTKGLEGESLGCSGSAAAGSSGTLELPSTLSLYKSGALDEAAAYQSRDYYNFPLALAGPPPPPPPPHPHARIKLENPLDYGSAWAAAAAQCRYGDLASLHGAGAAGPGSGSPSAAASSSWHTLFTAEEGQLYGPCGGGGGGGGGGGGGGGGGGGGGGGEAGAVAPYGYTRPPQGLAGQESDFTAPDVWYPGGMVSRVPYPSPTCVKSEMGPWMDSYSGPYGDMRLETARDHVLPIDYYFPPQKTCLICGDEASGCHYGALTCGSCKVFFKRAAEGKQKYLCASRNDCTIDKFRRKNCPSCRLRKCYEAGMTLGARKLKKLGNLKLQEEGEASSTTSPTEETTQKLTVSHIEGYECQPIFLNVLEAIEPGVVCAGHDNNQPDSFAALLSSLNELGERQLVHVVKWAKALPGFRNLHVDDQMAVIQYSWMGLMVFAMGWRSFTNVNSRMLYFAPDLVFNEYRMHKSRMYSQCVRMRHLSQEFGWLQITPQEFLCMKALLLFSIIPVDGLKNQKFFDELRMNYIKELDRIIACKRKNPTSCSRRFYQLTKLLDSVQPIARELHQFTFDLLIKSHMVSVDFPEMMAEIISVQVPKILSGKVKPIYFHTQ
T2 sequence (P10275 whole entry F877L): as the sequence (P10275 whole entry) above, with F877L counted along it

Compound	IC50 [1, 5] [nM]	Emax [1, 6] [%]	EC50 [2, 7] [nM]	Emax [2, 8] [%]	IC50 ([3]; antagonist mode) [nM]	Emax [3, 6] [%]	EC50 [4, 7] [nM]	Emax [4, 8] [%]	rGABA-gated Cl− channel % inh @10 μM (rGABA-gated Cl− channel) [%]	Emax [1, 9] [%]	Emax [2, 10] [%]	Emax [3, 9] [%]	Emax [4, 10] [%]	LNCaP-AR-wt ANT pIC50 [1, 5]	LNCaP-AR-wt AG pEC50 [2, 7]	LNCaP-AR-F876L AG pEC50 [4, 7]
N#Cc1ncc(N2C(=O)C3(CCC3)N(c3ccc4nn(CCO)cc4c3)C2=S)cc1Cl [Cpd 162, 3-chloro-5-[8-[2-(2-hydroxyethyl)indazol-5-yl]-5-oxo-7-thioxo-6,8-diazaspiro[3.4]octan-6-yl]pyridine-2-carbonitrile]	324	96.4	> 15100	-0.1	158	99.2	> 15100	0	48.5	–	–	–	–	–	–	–
CN1CCC(n2ncc3cc(N4C(=S)N(c5cnc(C#N)c(C(F)(F)F)c5)C(=O)C45CCC5)ccc32)CC1 [Cpd 109, 5-[8-[1-(1-methyl-4-piperidyl)indazol-5-yl]-5-oxo-7-thioxo-6,8-diazaspiro[3.4]octan-6-yl]-3-(trifluoromethyl)pyridine-2-carbonitrile]	2820	96.1	> 15100	0	1350	98.8	> 15100	0.2	20.6	–	–	–	–	–	–	–
COCCn1cc2cc(N3C(=S)N(c4cnc(C#N)c(C(F)(F)F)c4)C(=O)C34CCC4)ccc2n1 [Cpd 172, 5-[8-[2-(2-methoxyethyl)indazol-5-yl]-5-oxo-7-thioxo-6,8-diazaspiro[3.4]octan-6-yl]-3-(trifluoromethyl)pyridine-2-carbonitrile]	339	99.2	> 15100	0.2	174	100	> 15100	-0.1	94.9	–	–	–	–	–	–	–
N#Cc1ncc(N2C(=O)C3(CCC3)N(c3ccc(O[C@@H]4CCN[C@H](C(F)(F)F)C4)cc3)C2=S)cc1C(F)(F)F (racemic) [Cpd 101, 5-[5-oxo-7-thioxo-8-[4-[[(2SR,4RS)-2-(trifluoromethyl)-4-piperidyl]oxy]phenyl]-6,8-diazaspiro[3.4]octan-6-yl]-3-(trifluoromethyl)pyridine-2-carbonitrile]	155	102	> 15100	0.3	123	98.3	> 15100	0.7	83.9	–	–	–	–	–	–	–
CN1CCOC(c2ccc(N3C(=S)N(c4cnc(C#N)c(C(F)(F)F)c4)C(=O)C34CCC4)cc2)C1 (stereo not drawn) [Cpd 241, 5-[8-[4-(4-methylmorpholin-2-yl)phenyl]-5-oxo-7-thioxo-6,8-diazaspiro[3.4]octan-6-yl]-3-(trifluoromethyl)pyridine-2-carbonitrile]	224	–	> 15100	–	158	–	> 15100	–	87.4	103	-0.1	103	1.1	–	–	–
CN1C2CCC1C(F)C(Oc1ccc(N3C(=S)N(c4cnc(C#N)c(C(F)(F)F)c4)C(=O)C34CCC4)cc1)C2 (stereo not drawn) [Cpd 94, 5-[8-[4-[(4-fluoro-8-methyl-8-azabicyclo[3.2.1]octan-3-yl)oxy]phenyl]-5-oxo-7-thioxo-6,8-diazaspiro[3.4]octan-6-yl]-3-(trifluoromethyl)pyridine-2-carbonitrile]	–	101	–	0.8	70.8	101	–	0.2	91.0	–	–	–	–	6.78	<4.82	<4.82
